BindingDB's records for doi:10.1021/cb100387r (Riken Advanced Science Institute, 2011)

These compounds were tested against Protein disulfide-isomerase (Homo sapiens, UniProt P07237) (assay: Reductase Activity Assay). Conditions: pH 7.
Protocol: Reductase activity was assayed by measuring the PDI-catalyzed reduction of insulin in the presence of DTT, thus measuring the aggregation of reduced insulin chains at 650nm.

Sequence of Protein disulfide-isomerase (P07237 whole entry): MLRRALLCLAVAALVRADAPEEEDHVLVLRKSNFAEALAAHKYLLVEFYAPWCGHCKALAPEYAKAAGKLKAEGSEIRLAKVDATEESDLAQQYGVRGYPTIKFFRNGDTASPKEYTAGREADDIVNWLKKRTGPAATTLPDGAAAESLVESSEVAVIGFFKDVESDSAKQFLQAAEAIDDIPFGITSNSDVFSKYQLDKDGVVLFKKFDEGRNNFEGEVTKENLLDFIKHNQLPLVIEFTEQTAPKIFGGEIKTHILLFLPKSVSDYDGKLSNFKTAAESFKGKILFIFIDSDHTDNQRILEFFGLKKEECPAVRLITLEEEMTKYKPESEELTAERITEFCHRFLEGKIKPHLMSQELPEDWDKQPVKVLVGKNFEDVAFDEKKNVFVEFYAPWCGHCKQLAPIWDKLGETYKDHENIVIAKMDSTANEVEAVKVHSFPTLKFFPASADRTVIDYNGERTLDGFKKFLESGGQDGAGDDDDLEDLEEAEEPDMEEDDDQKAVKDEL

| IC50 | SMILES |
| --- | --- |
| 156 nM | C/C1=C\CC(OC(=O)c2ccc(O)cc2)/C(C)=C/[C@@H](O)C(C)(C)CCC1 (stereo partly specified) [Juniferdin derivative, 1] |
| > 10000 nM | COc1ccc(C(=O)OC2C/C=C(\C)CCCC(C)(C)[C@H](O)/C=C/2C)cc1 (stereo partly specified) [Juniferdin derivative, 2] |
| 453 nM | CC(=O)O[C@@H]1/C=C(\C)C(OC(=O)c2ccc(O)cc2)C/C=C(\C)CCCC1(C)C (stereo partly specified) [Juniferdin derivative, 3] |
| 627 nM | CC(=O)Oc1ccc(C(=O)OC2C/C=C(\C)CCCC(C)(C)[C@H](O)/C=C/2C)cc1 (stereo partly specified) [Juniferdin derivative, 4] |
| 693 nM | CC(=O)Oc1ccc(C(=O)OC2C/C=C(\C)CCCC(C)(C)[C@H](OC(C)=O)/C=C/2C)cc1 (stereo partly specified) [Juniferdin derivative, 5] |
| 4960 nM | C/C1=C\CC(OC(=O)c2ccccc2)/C(C)=C/[C@@H](O)C(C)(C)CCC1 (stereo partly specified) [Juniferdin derivative, 6] |
| 958 nM | C/C1=C\CC(OC(=O)c2ccc(F)cc2)/C(C)=C/[C@@H](O)C(C)(C)CCC1 (stereo partly specified) [Juniferdin derivative, 7] |
| > 10000 nM | CCCCCCCCOC(=O)c1ccc(O)cc1 [Juniferdin derivative, 8] |
| 2850 nM | O=C(OC1CCCCCCC1)c1ccc(O)cc1 [Juniferdin derivative, 9] |
| 565 nM | O=C(OC1CCCCCCCCCCC1)c1ccc(O)cc1 [Juniferdin derivative, 10] |
| 167 nM | C/C1=C\[C@@H](O)C(C)(C)CCC[C@@]2(C)O[C@@H]2CC1OC(=O)c1ccc(O)cc1 (stereo partly specified) [Juniferdin derivative, 13] |
| 2530 nM | C/C1=C\CC(OC(=O)c2ccc(O)cc2)[C@@]2(C)O[C@@H]2[C@@H](O)C(C)(C)CCC1 (stereo partly specified) [Juniferdin derivative, 14] |
| > 10000 nM | CC1(C)CCC[C@@]2(C)O[C@@H]2CC(OC(=O)c2ccc(O)cc2)[C@@]2(C)O[C@@H]2[C@H]1O (stereo partly specified) [Juniferdin derivative, 15] |
| > 10000 nM | C/C1=C\[C@@H](O)C(C)(C)CCC[C@@](C)(O)[C@H](O)CC1OC(=O)c1ccc(O)cc1 (stereo partly specified) [Juniferdin derivative, 16] |
| 1850 nM | C/C1=C\[C@@H](O)C(C)(C)CCC[C@](C)(O)[C@@H](O)CC1OC(=O)c1ccc(O)cc1 (stereo partly specified) [Juniferdin derivative, 17] |
| > 10000 nM | C/C1=C\CC(O)/C(C)=C/[C@@H](O)C(C)(C)CCC1 (stereo partly specified) [Juniferol, 12] |
